Results: patent publication US8202998B2, “Salts of benzimidazolyl pyridyl ethers and formulations thereof” (Novartis AG, priority 2006, dated 2012)

What was measured:
[1] = Hygroscopicity (sorption/desorption); assay type: physicochemical
Experimental: Sorption/desorption isotherms were measured using VTI vapor sorption device (DVS-1). Measurements were carried out at 25° C.

[2] = Determination of solubility at 25° C.; assay type: physicochemical; settings: for solubility: thermodynamic from solid
Experimental: Excess solids were equilibrated in each solvent for over 24 hours at 25° C.±0.1. Concentration in aqueous supernatant was measured by UV and HPLC and concentrations in organic solvents by gravimetry.

[3] = Aqueous solubility of salts in deionized water
[4] = Polymorphism behavior: crystal modification after 24 hours equilibration; assay type: physicochemical
Experimental: A suspension of 6 mg of drug substance in 300 μl of solvent is prepared. Samples are agitated for ≧24 hour at 22° C.±2° C. The solids are collected and investigated for changes.

[5] = Effect of grinding on morphic properties; assay type: physicochemical
[6] = Stability: degradation products (DP) and appearance (color) under stress conditions; assay type: physicochemical; set-up: key to CL: A: No change of color; B: Slight discoloration; C: Medium discoloration; D: Strong discoloration; ↓: Suspension; *: Clear solution after stress test; —: no change; x: test not performed
Experimental: Column: Symmetry C18 (Waters), 3.5 μm, 3×150 mm
Mobile phase: A=0.1% TFA in water; B=acetonitrile
Gradient: 20 to 100% B in 10 minutes
Column temperature: 40° C.
Stability of the three salts with respect to color and degradation products were assessed under various conditions.

[7] = Bioavailability study of API and salts of API in dogs; assay type: in vivo, beagle dogs; settings: single 100 mg oral dose
Experimental: For comparison, a microemulsion of the free base was also studied. The study was performed with 4 dogs, weighing 9-15 kg each. A crossover design with a washout period of at least 1 week was used. The dogs were given a single oral dose of 100 mg of test compound, administered under fasting conditions.

[8] = Intrinsic dissolution rate; assay type: physicochemical; settings: 37° C.
Experimental: The intrinsic dissolution rate measurements were carried out in 0.5 cm^2 VanKel die assemblies and a pellet pressure of 1 ton. The dissolution was measured using a Cary 50 spectrophotometer with a stirring rate of 200 rpm. The solution medium was held at 37° C. and measurements were made at 276 nm.

[9] = pH of 1% solution or suspension; assay type: physicochemical; settings: In water
[10] = Thermogravimetry / loss on drying; assay type: physicochemical
[11] = deionized water, water, thermodynamic from solid
[12] = 0.1% solutions or suspensions, 1 week 80° C. or 50° C., Methanol
[13] = 0.1% solutions or suspensions, 1 week 80° C. or 50° C., Water
[14] = 1-2 weeks 50° C., tight container, 1% in mixture 1
[15] = 1-2 weeks 50° C., tight container, 1% in mixture 2
[16] = 1-2 weeks 50° C./75% r.h., 1% in mixture 1
[17] = 1-2 weeks 50° C./75% r.h., 1% in mixture 2
[18] = Solid stage, 1 week 80° C., tight container, Bulk (HPLC)
[19] = Xenon light (approx. 1200 kLuxh), Bulk (HPLC)
[20] = beagle, dog, plasma, fasting, mean and sd

## CS(=O)(=O)O.Cn1c(Nc2ccc(C(F)(F)F)cc2)nc2cc(Oc3ccnc(-c4ncc(C(F)(F)F)[nH]4)c3)ccc21 [Mesylate, {1-methyl-5-[2-(5-trifluoromethyl-1H-imidazol-2-yl)-pyridin-4-yloxy]-1H-benzoimidazol-2-yl}-(4-trifluoromethyl-phenyl)amine methanesulfonate]
[1]
  Hygroscopicity from moisture sorption profiles (in words): hygroscopic
[1]; 80% r.h., 1 day, 25° C.
  Hygroscopicity: After 1 day at 80% r.h.: 4.0
[1]; 95% r.h., 1 day, 25° C.
  Hygroscopicity: After 1 day at 95% r.h.: 13.0
[2]; 0.1N HCl, 25 °C, simulated gastric fluid, read-out: Solubility (approx. at 25° C.) (HPLC)
  solubility: 5700 µg/mL
[2]; acetonitrile, 25 °C, organic solvent or mixture, read-out: Solubility (approx. at 25° C.)
  solubility: 4000 µg/mL
[2]; aqueous medium at pH 3, 25 °C, pH 3, aqueous buffer, read-out: Solubility (approx. at 25° C.) (HPLC)
  solubility: 0.5 µg/mL
[2]; aqueous medium at pH 4.5, 25 °C, pH 4.5, aqueous buffer, read-out: Solubility (approx. at 25° C.) (HPLC)
  solubility: 0.1 µg/mL
[2]; line after Water under Solubility
  Solid: No change
[2]; methanol, 25 °C, organic solvent or mixture, read-out: Solubility (approx. at 25° C.)
  solubility: > 50000 µg/mL
[2]; solubility sample at pH 3
  Measured pH: 3.6
[2]; solubility sample in 0.1N HCl
  Measured pH: 1.3
[2]; summary of Table 8
  Aqueous solubility (in words): significantly improves aqueous solubility at all pH levels
[2]; water, 25 °C, water, read-out: Solubility (approx. at 25° C.) (HPLC)
  solubility: 70 µg/mL
[3]; [11]
  solubility: 4 µg/mL
  solubility at 48 h: 774 µg/mL
[3]; pH of the saturated aqueous solutions
  pH: 1.992
[4]; 2-propanol
  Crystal modification after 24 hours equilibration (DSC/XRPD/TG): No change
[4]; Acetone
  Crystal modification after 24 hours equilibration (DSC/XRPD/TG): No change
[4]; Acetonitrile
  Crystal modification after 24 hours equilibration (DSC/XRPD/TG): No change
[4]; Ethanol
  Crystal modification after 24 hours equilibration (DSC/XRPD/TG): No change
[4]; Ethyl acetate
  Crystal modification after 24 hours equilibration (DSC/XRPD/TG): No change
[4]; Methanol
  Crystal modification after 24 hours equilibration (DSC/XRPD/TG): No change
[4]; PEG400
  Crystal modification after 24 hours equilibration (DSC/XRPD/TG): No change
[4]; Water
  Crystal modification after 24 hours equilibration (DSC/XRPD/TG): Change
[5]
  Effect of grinding: No change
[6]; [12]
  CL: A
  DP: 2.7%
[6]; [13]
  CL: A↓
  DP: 0.5%
[6]; [14]
  CL: A
  DP: 0.5%
[6]; [15]
  CL: A
  DP: 0.6%
[6]; [16]
  CL: A
  DP: 2%
[6]; [17]
  CL: A
  DP: 1.2%
[6]; [18]
  CL: A
  DP: 0.5%
[6]; Solid state, 1 week 80° C./175% r.h, Bulk (HPLC)
  DP: 0.8%
[6]; Solid state, 1 week 80° C./, Bulk (HPLC)
  CL: A
[6]; Unstressed
  DP: 0.5%
[6]; [19]
  CL: A
  DP: 0.6%
[7]; [20]
  AUC(0-inf): 54400 ± 14200 ng·h/mL
  Cmax: 1570 ± 530 ng/mL
  half-life: 21.4 ± 13 h
[7]; beagle, dog, plasma, fasting, median
  Tmax: 5 h
[7]; fasting, median
  Tlag: 0.13 h
[7]; relative to an iv dose of 1.25 mg/kg
  Absolute F: 23.7 ± 6.2
[8]; HCl 0.1N
  Intrinsic dissolution rate: 0.056 mg min^−1 cm^−2
[8]; Water
  Intrinsic dissolution rate: 0.0024 mg min^−1 cm^−2
[9]
  pH of 1% solution or suspension: 2.0
[10]; As is
  Loss on drying by TG: 1.3%
[10]; Heating rate 20 K/min
  Thermogravimetry (weight loss in %): 1.3%
